Measured values taken from the supplement of paper PMC10307832.

How the values were obtained:
Assay in all cases: relative viability (nuclei count vs DMSO), 5 days (fraction); higher = more cells survive
Afatinib + Palbociclib = compound: CN(C)C/C=C/C(=O)Nc1cc2c(Nc3ccc(F)c(Cl)c3)ncnc2cc1O[C@H]1CCOC1 [Afatinib] + CC(=O)c1c(C)c2cnc(Nc3ccc(N4CCNCC4)cn3)nc2n(C2CCCC2)c1=O [Palbociclib] (partner 0.5 µM)
In short: (§1)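 Relative viability was taken as the ratio of nuclei in treated wells to nuclei in vehicle wells. Lung cancer cell lines in 1536-well plates received compounds by pin tool one day after seeding, either one drug alone or a fixed anchor-drug dose plus five library-drug doses (not always all listed) in √10 steps. Nuclei were counted on 4× images after 5 days of treatment, and values are medians of duplicate plates.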

Afatinib + Pictilisib = compound: CN(C)C/C=C/C(=O)Nc1cc2c(Nc3ccc(F)c(Cl)c3)ncnc2cc1O[C@H]1CCOC1 [Afatinib] + CS(=O)(=O)N1CCN(Cc2cc3nc(-c4cccc5[nH]ncc45)nc(N4CCOCC4)c3s2)CC1 [Pictilisib] (partner 1 µM)
In short: as §1

Afatinib + Bortezomib = compound: CN(C)C/C=C/C(=O)Nc1cc2c(Nc3ccc(F)c(Cl)c3)ncnc2cc1O[C@H]1CCOC1 [Afatinib] + CC(C)C[C@H](NC(=O)[C@H](Cc1ccccc1)NC(=O)c1cnccn1)B(O)O [Bortezomib] (partner 0.002 µM)
In short: as §1

Afatinib + Foretinib = compound: CN(C)C/C=C/C(=O)Nc1cc2c(Nc3ccc(F)c(Cl)c3)ncnc2cc1O[C@H]1CCOC1 [Afatinib] + COc1cc2c(Oc3ccc(NC(=O)C4(C(=O)Nc5ccc(F)cc5)CC4)cc3F)ccnc2cc1OCCCN1CCOCC1 [Foretinib] (partner 0.25 µM)
In short: as §1

Cell Line	relative viability (Afatinib + Palbociclib; first compound 0.005 µM)	relative viability (Afatinib + Palbociclib; first compound 0.01581 µM)	relative viability (Afatinib + Palbociclib; first compound 0.05 µM)	relative viability (Afatinib + Palbociclib; first compound 0.1581 µM)	relative viability (Afatinib + Palbociclib; first compound 0.5 µM)	relative viability (Afatinib + Pictilisib; first compound 0.005 µM)	relative viability (Afatinib + Pictilisib; first compound 0.01581 µM)	relative viability (Afatinib + Pictilisib; first compound 0.05 µM)	relative viability (Afatinib + Pictilisib; first compound 0.1581 µM)	relative viability (Afatinib + Pictilisib; first compound 0.5 µM)	relative viability (Afatinib + Bortezomib; first compound 0.005 µM)	relative viability (Afatinib + Bortezomib; first compound 0.01581 µM)	relative viability (Afatinib + Bortezomib; first compound 0.05 µM)	relative viability (Afatinib + Bortezomib; first compound 0.1581 µM)	relative viability (Afatinib + Bortezomib; first compound 0.5 µM)	relative viability (Afatinib + Foretinib; first compound 0.005 µM)	relative viability (Afatinib + Foretinib; first compound 0.01581 µM)	relative viability (Afatinib + Foretinib; first compound 0.05 µM)	relative viability (Afatinib + Foretinib; first compound 0.1581 µM)	relative viability (Afatinib + Foretinib; first compound 0.5 µM)
NCI-H2087	0.232	0.185	0.226	0.253	0.191	1.12	0.907	0.86	0.904	0.72	1.02	0.756	0.867	0.8	0.795	1.19	1.16	1.24	1.15	0.842
NCI-H2126	0.342	0.338	0.364	0.342	0.314	0.487	0.447	0.36	0.436	0.37	1.11	1.04	1.01	0.984	0.852	1.03	1.19	1.08	0.729	0.853
NCI-H2228	0.884	0.774	0.705	0.749	0.744	0.343	0.45	0.381	–	0.279	1.19	0.812	0.984	–	0.901	0.914	0.88	0.774	0.795	0.759
NCI-H2347	0.415	0.446	0.445	0.418	0.432	0.737	0.665	0.672	0.596	0.841	1.06	0.919	0.81	0.865	0.728	1.08	0.842	1.03	0.899	0.518
NCI-H2405	0.555	0.562	0.57	0.513	0.508	0.445	0.47	0.611	0.473	0.57	1	0.953	0.975	0.931	1.01	1.07	1.02	1.05	0.978	1.08
NCI-H3122	0.179	0.184	0.174	0.182	0.187	0.558	0.628	0.663	0.557	0.621	1.05	1.02	1.06	0.967	1.04	0.924	0.982	0.949	0.906	0.938
PC-3 [JPC-3]	0.484	0.444	0.441	0.362	0.397	0.429	0.323	0.339	0.3	0.355	0.516	0.351	0.315	0.406	0.303	0.472	0.508	0.42	0.388	0.343
PC-14	0.0841	0.0837	0.079	0.0664	0.0642	0.109	0.0863	0.108	0.0958	0.0837	0.303	0.256	0.268	0.222	0.249	0.45	0.149	0.184	0.179	0.183
RERF-LC-KJ	1.05	1.02	0.984	0.85	0.825	0.543	0.507	0.414	0.35	0.392	1.01	1.16	0.901	0.818	0.793	0.844	0.86	0.82	0.8	0.794
SK-LU-1	0.355	0.416	0.413	0.396	0.4	0.713	0.537	0.561	0.564	0.531	1.07	1.28	1.33	1.28	1.09	0.856	0.833	0.878	0.764	0.845
SW 1573	0.451	0.364	0.404	0.306	0.362	0.547	0.406	0.585	0.484	0.484	1.12	1.07	1.05	0.98	1.1	0.999	0.924	0.898	0.861	0.877
UMC-11	0.355	0.325	0.283	0.308	0.325	0.981	0.841	0.787	0.725	0.84	0.998	0.735	0.667	0.669	0.777	0.992	1.03	1.08	1.02	0.996
